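Each compound was tested at five concentrations against cells in 96-well plates for 48 hours. At the GI50, growth is halved. At the TGI there is no net growth.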
Tests used:
Assay in all cases: NCI tumour cell line growth inhibition, 48 h
A498 renal = test system: A498 renal
SF-268 CNS = test system: SF-268 CNS
HOP-62 NSCLC = test system: HOP-62 NSCLC
SK-MEL-2 melanoma = test system: SK-MEL-2 melanoma
NCI-H522 lung = test system: NCI-H522 lung
786-0 renal = test system: 786-0 renal
A549 NSCLC = test system: A549 NSCLC
COLO 205 colon = test system: COLO 205 colon
HCT-15 colon = test system: HCT-15 colon
OVCAR-3 ovarian = test system: OVCAR-3 ovarian
NCI-H23 lung = test system: NCI-H23 lung
EKVX NSCLC = test system: EKVX NSCLC
RPMI-8226 leukemia = test system: RPMI-8226 leukemia
U251 CNS = test system: U251 CNS
RXF 393 renal = test system: RXF 393 renal
MDA-MB-468 breast = test system: MDA-MB-468 breast
K-562 leukemia = test system: K-562 leukemia
M14 melanoma = test system: M14 melanoma
NCI-H226 lung = test system: NCI-H226 lung
SNB-19 CNS = test system: SNB-19 CNS
HT29 colon = test system: HT29 colon
SK-MEL-5 melanoma = test system: SK-MEL-5 melanoma
UACC-257 melanoma = test system: UACC-257 melanoma
T-47D breast = test system: T-47D breast
NCI-H460 lung = test system: NCI-H460 lung
MDA-MB-231 breast = test system: MDA-MB-231 breast
SN12C renal = test system: SN12C renal
SK-MEL-28 melanoma = test system: SK-MEL-28 melanoma
MDA-MB-435 = test system: MDA-MB-435
IGROV1 ovarian = test system: IGROV1 ovarian

Compound: CCOC(=O)c1sc(N/N=C(\C)c2ccc3c(c2)Nc2ccccc2S3)nc1C
- GI50 (A498 renal): 16.1 µM
- TGI (A498 renal): 45.5 µM
- GI50 (SF-268 CNS): 13.1 µM
- TGI (SF-268 CNS): 40.4 µM
- GI50 (HOP-62 NSCLC): 13.3 µM
- TGI (HOP-62 NSCLC): 29.6 µM
- GI50 (SK-MEL-2 melanoma): 15.4 µM
- TGI (SK-MEL-2 melanoma): 44.8 µM
- GI50 (NCI-H522 lung): 10.7 µM
- TGI (NCI-H522 lung): 34.8 µM
- GI50 (786-0 renal): 7.21 µM
- TGI (786-0 renal): 23.1 µM
- GI50 (A549 NSCLC): 6.4 µM
- TGI (A549 NSCLC): 38.8 µM
- GI50 (COLO 205 colon): 9.42 µM
- TGI (COLO 205 colon): 32.2 µM
- GI50 (HCT-15 colon): 3.4 µM
- TGI (HCT-15 colon): 14.8 µM
- GI50 (OVCAR-3 ovarian): 12.8 µM
- TGI (OVCAR-3 ovarian): 27.3 µM
- GI50 (NCI-H23 lung): 8.65 µM
- TGI (NCI-H23 lung): 21.3 µM
- GI50 (EKVX NSCLC): 5.82 µM
- TGI (EKVX NSCLC): 22.8 µM
- GI50 (RPMI-8226 leukemia): 3.96 µM
- TGI (RPMI-8226 leukemia): > 100 µM
- GI50 (U251 CNS): 14.1 µM
- TGI (U251 CNS): 54 µM
- GI50 (RXF 393 renal): 3.2 µM
- TGI (RXF 393 renal): 13.3 µM
- GI50 (MDA-MB-468 breast): 3.45 µM
- TGI (MDA-MB-468 breast): 15.1 µM
- GI50 (K-562 leukemia): 4.03 µM
- TGI (K-562 leukemia): > 100 µM
- GI50 (M14 melanoma): 8.42 µM
- TGI (M14 melanoma): 61.8 µM
- GI50 (NCI-H226 lung): 10.9 µM
- TGI (NCI-H226 lung): 29.3 µM
- GI50 (SNB-19 CNS): 12.8 µM
- TGI (SNB-19 CNS): 25.6 µM
- GI50 (HT29 colon): 11.7 µM
- TGI (HT29 colon): > 100 µM
- GI50 (SK-MEL-5 melanoma): 7.62 µM
- TGI (SK-MEL-5 melanoma): 27.2 µM
- GI50 (UACC-257 melanoma): 12.4 µM
- TGI (UACC-257 melanoma): 40.4 µM
- GI50 (T-47D breast): 3.94 µM
- TGI (T-47D breast): 49.2 µM
- GI50 (NCI-H460 lung): 5 µM
- TGI (NCI-H460 lung): 24.2 µM
- GI50 (MDA-MB-231 breast): 5.73 µM
- TGI (MDA-MB-231 breast): 19.1 µM
- GI50 (SN12C renal): 11.5 µM
- TGI (SN12C renal): 28.3 µM
- GI50 (SK-MEL-28 melanoma): 11.1 µM
- TGI (SK-MEL-28 melanoma): 26.1 µM
- GI50 (MDA-MB-435): 10.7 µM
- TGI (MDA-MB-435): 33.6 µM
- GI50 (IGROV1 ovarian): 11.3 µM

— PubChem BioAssay (NCI)
